In patent US6734175B2, “Treatments for obesity and methods for identifiying compounds useful for treating obesity” (Pfizer Inc., priority 2000, dated 2004):

Tests used:
melanocortin-4 receptors = biological target: T1, melanocortin-4 receptors (Homo sapiens, UniProt P32245); assay: [125I]AGRP competition binding assay; conditions: particularly melanocortin-4 receptors; qualitative statement
T1 construct: host or cells: membranes from unnamed cells expressing the receptor
Excerpt: (§1) The first radioligand binding assay is an [^125I]AGRP competition binding assay. Compounds that attenuate binding of [^125I]AGRP or AGRP would be detected in this assay. It is noted that compounds can attenuate the binding of AGRP to melanocortin 3 and/or 4 receptors by binding to melanocortin 3 and/or 4 receptors or by binding to AGRP itself. The second radioligand binding assay is an assay using radiolabeled melanocortin ligands, for example, [^125I]norleucine D-phenylalanine melanocyte stimulating hormone ([^125I]NDP-MSH). Membranes prepared from cells expressing either melanocortin 3 or 4 receptors are used in the radioligand binding assays. The preparation and use of [^125I]AGRP and [^125I]NDP-MSH is well known in the art. See, for example, Dang et al., Molecular Endocrinology, 13, 148-155 (1999). In addition, the preparation and use of membranes from cells expressing either melanocortin 3 or 4 receptors are also well known in the art. See, Bass, et al., Molecular Pharmacology, 50, 709-715 (1996).
[^125I] AGRP Competition Binding Assay
Specific Activity of [^125I]AGRP is 2200 Ci/mmole. The final concentration of [^125I]AGRP is 100 pM. Therefore, a 2 nM (20×) stock needs to be made in binding buffer. The concentration of [^125I]AGRP varies from 40-60 nM. [^125I]AGRP can be obtained from New England Nuclear, Boston, Mass.
(§2) The competition assay can be run using 96 well plates. […]

melanocortin receptors = assay: [125I]NDP-MSH competition binding assay; conditions: qualitative statement
Excerpt: as §1
[^125I]NDP-MSH Competition Binding Assay
Specific Activity of [^125I]NDP-MSH is 2200 Ci/mmole. The final concentration of [^125I]NDP-MSH is 250 pM. Therefore, a 5 nM (20×) stock needs to be made in binding buffer. The concentration of [^125I]NDP-MSH varies from 40-60 nM. [^125I]NDP-MSH can be obtained from New England Nuclear, Boston, Mass.
as §2

T1 sequence (P32245 whole entry): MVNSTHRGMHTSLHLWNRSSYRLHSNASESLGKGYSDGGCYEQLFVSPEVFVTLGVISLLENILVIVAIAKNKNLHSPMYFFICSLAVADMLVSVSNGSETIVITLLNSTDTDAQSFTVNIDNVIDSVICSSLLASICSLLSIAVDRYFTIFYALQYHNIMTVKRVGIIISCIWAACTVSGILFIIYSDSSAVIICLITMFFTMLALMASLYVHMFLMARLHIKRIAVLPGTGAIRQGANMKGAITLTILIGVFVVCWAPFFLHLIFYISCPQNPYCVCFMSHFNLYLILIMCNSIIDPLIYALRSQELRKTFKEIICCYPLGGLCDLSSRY

**Q.** What does the source list for `O=[N+]([O-])c1ccc(N2C3c4ccccc4CCN3N(c3ccc([N+](=O)[O-])cc3)C3c4ccccc4CCN32)cc1` (centres unmarked) [8,16-bis-(4-nitro-phenyl)-5,6,8,8a,13,14,16,16a-octahydro-[1,2,4,5]tetrazino[6,1-a;3,4-a′]diisoquinoline]?
**A.** binding of agouti-related protein to melanocortin receptors (melanocortin-4 receptors): attenuates the binding of agouti-related protein to melanocortin receptors; binding of α-melanocyte stimulating hormone to melanocortin receptors (melanocortin receptors): does not attenuate the binding of α-melanocyte stimulating hormone to melanocortin receptors
